Assay results as given in patent US20230348369A1 (Cytokinetics, Inc., priority 2020, published 2023).
Like-named read-outs stand apart in the source and are kept apart here.

Biological target: human NAMPT (Homo sapiens, UniProt P43490)
Experiment: Human recombinant enzyme assay (NMN fluorescence biochemical assay, activation of NAMPT)
How it was run: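 Activation of recombinant human NAMPT (6 nM) with 2.5 mM ATP, 20 μM PRPP and 150 μM nicotinamide in 50 mM HEPES pH 7.2, 1 mM DTT, 1 mM CHAPS, 50 mM NaCl, 100 mM MgCl2; 60 min, ambient temperature. NMN formed was derivatized with acetophenone/KOH/formic acid, fluorescence read at 355/460 nm after 40 min.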

[1] = Table A, human recombinant NAMPT, NMN formation, 60 min
[2] = Table A, human recombinant NAMPT, NMN formation, 60 min, read-out: EC50 Human

Chain of human NAMPT (P43490 whole entry): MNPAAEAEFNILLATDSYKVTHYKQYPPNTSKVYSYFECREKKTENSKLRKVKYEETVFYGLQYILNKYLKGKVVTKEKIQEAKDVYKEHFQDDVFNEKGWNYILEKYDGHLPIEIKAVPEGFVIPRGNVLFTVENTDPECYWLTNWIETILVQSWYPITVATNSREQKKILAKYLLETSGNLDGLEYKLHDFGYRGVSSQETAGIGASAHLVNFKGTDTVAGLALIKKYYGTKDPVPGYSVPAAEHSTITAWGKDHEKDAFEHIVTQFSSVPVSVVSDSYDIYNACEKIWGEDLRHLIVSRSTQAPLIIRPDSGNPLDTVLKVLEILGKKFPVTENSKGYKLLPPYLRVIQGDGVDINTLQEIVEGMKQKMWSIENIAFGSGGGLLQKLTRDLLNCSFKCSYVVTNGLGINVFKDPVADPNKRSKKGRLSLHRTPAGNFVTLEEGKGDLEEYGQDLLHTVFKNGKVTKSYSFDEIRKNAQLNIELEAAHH

AC1.4 Human [1] [µM]	EC50 [2] [µM]	Structure (SMILES)	EC50 [µM]
9.6	11.8	O=C(NCc1ccc(Cl)cc1)NC1CC2(C1)CC(NC(=O)c1ccccc1O)C2 (stereo not drawn) [Compound 208, N-(6-(3-(4-chlorobenzyl)ureido)spiro[3.3]heptan-2-yl)-2-hydroxybenzamide]	
10.6	38.5	CN(C)c1ccccc1C(=O)NC1CC2(CC(NC(=O)NCc3ccc(Cl)cc3)C2)C1 (stereo not drawn) [Compound 209, N-(6-(3-(4-chlorobenzyl)ureido)spiro[3.3]heptan-2-yl)-2-(dimethylamino)benzamide]	
6.8	6.8	O=C(NCc1ccc(Cl)cc1)NC1CC2(C1)CC(NS(=O)(=O)c1cccnc1)C2 (stereo not drawn) [Compound 213, N-(6-(3-(4-chlorobenzyl)ureido)spiro[3.3]heptan-2-yl)pyridine-3-sulfonamide]	
3.6	30.8	Cc1ccc(C(=O)N2CC3(CC(NC(=O)NCc4ccc(C(N)=O)nc4)C3)C2)cc1 [Compound 215, 5-((3-(2-(4-methylbenzoyl)-2-azaspiro[3.3]heptan-6-yl)ureido)methyl)picolinamide]	
4.9	20.9	O=C(NCc1ccc(Cl)cc1)NC1CC2(C1)CN(S(=O)(=O)c1ccccc1Cl)C2 [Compound 216, 1-(4-chlorobenzyl)-3-(2-((2-chlorophenyl)sulfonyl)-2-azaspiro[3.3]heptan-6-yl)urea]	
19.2	20.1	O=C(NCc1ccc(Cl)cc1)NC1CC2(C1)CN(S(=O)(=O)c1cccc(Cl)c1)C2 [Compound 217, 1-(4-chlorobenzyl)-3-(2-((3-chlorophenyl)sulfonyl)-2-azaspiro[3.3]heptan-6-yl)urea]	
13.2	22.5	COc1ccccc1S(=O)(=O)N1CC2(CC(NC(=O)NCc3ccc(Cl)cc3)C2)C1 [Compound 218, 1-(4-chlorobenzyl)-3-(2-((2-methoxyphenyl)sulfonyl)-2-azaspiro[3.3]heptan-6-yl)urea]	
2.9	5.2	O=C(NCc1ccc(Cl)cc1)NC1CC2(C1)CN(C(=O)c1cccc(-n3cccc3)c1)C2 [Compound 219, 1-(2-(3-(1H-pyrrol-1-yl)benzoyl)-2-azaspiro[3.3]heptan-6-yl)-3-(4-chlorobenzyl)urea]	
3.6	4.7	CC(C)c1cccc(C(=O)N2CC3(CC(NC(=O)NCc4ccc(Cl)cc4)C3)C2)c1 [Compound 220, 1-(4-chlorobenzyl)-3-(2-(3-isopropylbenzoyl)-2-azaspiro[3.3]heptan-6-yl)urea]	
0.2	28.6	NC(=O)c1ccc(CNC(=O)NC2CC3(C2)CN(C(=O)c2cccc(N4CCCC4)c2)C3)cc1 [Compound 222, 4-((3-(2-(3-(pyrrolidin-1-yl)benzoyl)-2-azaspiro[3.3]heptan-6-yl)ureido)methyl)benzamide]	
0.2	38.5	NC(=O)c1ccc(CNC(=O)NC2CC3(C2)CN(C(=O)c2cncc(N4CCCC4)c2)C3)cc1 [Compound 223, 4-((3-(2-(5-(pyrrolidin-1-yl)nicotinoyl)-2-azaspiro[3.3]heptan-6-yl)ureido)methyl)benzamide]	
0.6	47.5	NC(=O)c1ccc(CNC(=O)NC2CC3(C2)CN(C(=O)c2ccc(Cl)cc2)C3)cc1 [Compound 224, 4-((3-(2-(4-chlorobenzoyl)-2-azaspiro[3.3]heptan-6-yl)ureido)methyl)benzamide]	
2.0	50.8	Cc1ccc(C(=O)N2CC3(CC(NC(=O)NCc4ccc(C(N)=O)cc4)C3)C2)cn1 [Compound 225, 4-((3-(2-(6-methylnicotinoyl)-2-azaspiro[3.3]heptan-6-yl)ureido)methyl)benzamide]	
2.9	31.4	Cc1cc(C(=O)N2CC3(CC(NC(=O)NCc4ccc(C(N)=O)cc4)C3)C2)ccn1 [Compound 226, 4-((3-(2-(2-methylisonicotinoyl)-2-azaspiro[3.3]heptan-6-yl)ureido)methyl)benzamide]	
2.0	33.8	Cc1ccc(C(=O)N2CC3(CC(NC(=O)NCc4cn[nH]c4)C3)C2)cc1 [Compound 227, 1-((1H-pyrazol-4-yl)methyl)-3-(2-(4-methylbenzoyl)-2-azaspiro[3.3]heptan-6-yl)urea]	
1.9	39.2	Cc1ccc(C(=O)N2CC3(CC(NC(=O)NCc4cocn4)C3)C2)cc1 [Compound 228, 1-(2-(4-methylbenzoyl)-2-azaspiro[3.3]heptan-6-yl)-3-(oxazol-4-ylmethyl)urea]	
1.8	30.9	COc1ccc(CNC(=O)NC2CC3(C2)CC(C(=O)N2CCN(C)CC2)C3)cc1 (stereo not drawn) [Compound 230, 1-(4-methoxybenzyl)-3-(6-(4-methylpiperazine-1-carbonyl)spiro[3.3]heptan-2-yl)urea]	
3.6	37.8	COc1ccc(CNC(=O)NC2CC3(C2)CC(C(=O)N2CCS(=O)(=O)CC2)C3)cc1 (stereo not drawn) [Compound 232, 1-(6-(1,1-dioxoidothiomorpholine-4-carbonyl)spiro[3.3]heptan-2-yl)-3-(4-methoxybenzyl)urea]	
0.9	1	COC(=O)N1CCN(C(=O)C2CC3(CC(NC(=O)NCc4ccc(Cl)cc4)C3)C2)CC1 (stereo not drawn) [Compound 233, Methyl 4-(6-(3-(4-chlorobenzyl)ureido)spiro[3.3]heptane-2-carbonyl)piperazine-1-carboxylate]	
3.7	8.6	CC(C)(O)CN1CCN(C(=O)CC2CC3(C2)CC(NC(=O)NCc2ccc(Cl)cc2)C3)CC1 (stereo not drawn) [Compound 234, 1-(4-chlorobenzyl)-3-(6-(2-(4-(2-hydoxy-2-methylpropyl)piperazin-1-yl)-2-oxoethyl)spiro[3.3]heptan-2-yl)urea]	
4.1	7.5	O=C(NCc1ccc(Cl)cc1)NC1CC2(CC(CC(=O)N3CCC[C@H]3CO)C2)C1 (stereo partly drawn) [Compound 235, (S)-1-(4-chlorobenzyl)-3-(6-(2-(2-(hydroxymethyl)pyrrolidin-1-yl)-2-oxoethyl)spiro[3.3]heptan-2-yl)urea]	
3.6	5.7	O=C(NCc1ccc(Cl)cc1)NC1CC2(CC(CC(=O)N3CCCC3)C2)C1 (stereo not drawn) [Compound 236, 1-(4-chlorobenzyl)-3-(6-(2-oxo-2-(pyrrolidin-1-yl)ethyl)spiro[3.3]heptan-2-yl)urea]	
2.4	2.6	CC(C(=O)N(C)Cc1ccccc1)C1CC2(CC(NC(=O)NCc3ccc(Cl)cc3)C2)C1 (stereo not drawn) [Compound 237, N-benzyl-2-(6-(3-(4-chlorobenzyl)ureido)spiro[3.3]heptan-2-yl)-N-methylpropanamide]	
3.4	20.3	CN1CCN(CC2CC3(C2)CC(NC(=O)NCc2ccc(Cl)cc2)C3)CC1=O (stereo not drawn) [Compound 238, 1-(4-chlorobenzyl)-3-(6-((4-methyl-3-oxopiperazin-1-yl)methyl)spiro[3.3]heptan-2-yl)urea]	
2.1	22.5	O=C(NCc1ccc(Cl)cc1)NC1CC2(CC(CN3CCC[C@@H]3c3cccnc3)C2)C1 (stereo partly drawn) [Compound 239, (R)-1-(4-chlorobenzyl)-3-(6-((2-(pyridin-3-yl)pyrrolidin-1-yl)methyl)spiro[3.3]heptan-2-yl)urea]	
0.9	3	Cc1ccc(C(=O)NCC2CC3(C2)CC(NC(=O)NCc2ccc(Cl)cc2)C3)cn1 (stereo not drawn) [Compound 240, N-((6-(3-(4-chlorobenzyl)ureido)spiro[3.3]heptan-2-yl)methyl)-6-methylnicotinamide]	
2.7	5.7	CC1CCC(=O)N1CC1CC2(C1)CC(NC(=O)NCc1ccc(Cl)cc1)C2 (stereo not drawn) [Compound 241, 1-(4-chlorobenzyl)-3-(6-((2-methyl-5-oxopyrrolidin-1-yl)methyl)spiro[3.3]heptan-2-yl)urea]	
3.6	0.8	O=C(NCc1ccc(Cl)cc1)NC1CC2(CC(Cn3nncc3-c3ccccc3)C2)C1 (stereo not drawn) [Compound 242, 1-(4-chlorobenzyl)-3-(6-((5-phenyl-1H-1,2,3-triazol-1-yl)methyl)spiro[3.3]heptan-2-yl)urea]	
1.5	4.2	O=C(NCc1ccc(Cl)cc1)NC1CC2(CC(CNC(=O)C3CCS(=O)(=O)CC3)C2)C1 (stereo not drawn) [Compound 243, N-((6-(3-(4-chlorobenzyl)ureido)spiro[3.3]heptan-2-yl)methyl)tetrahydro-2H-thiopyran-4-carboxamide 1,1-dioxide]	
3.4	7.3	CC1CCN(CC2CC3(C2)CC(NC(=O)NCc2ccc(Cl)cc2)C3)C1=O (stereo not drawn) [Compound 244, 1-(4-chlorobenzyl)-3-(6-((3-methyl-2-oxopyrrolidin-1-yl)methyl)spiro[3.3]heptan-2-yl)urea]	

Structure (SMILES)	AC1.4 Human [1] [µM]	EC50 [2] [µM]	EC50 [µM]
CC(C)(C(=O)N1CC2(CC(NC(=O)NCc3ccc(Cl)cc3)C2)C1)c1ccccc1 [Compound 221, 1-(4-chlorobenzyl)-3-(2-(2-methyl-2-phenylpropanoyl)-2-azaspiro[3.3]heptan-6-yl)urea]	1.1		4.6
COC(=O)N1CCN(C(=O)C2CC3(CC(NC(=O)NCc4ccc(OC)cc4)C3)C2)CC1 (stereo not drawn) [Compound 231, methyl 4-(6-(3-(4-methoxybenzyl)ureido)spiro[3.3]heptane-2-carbonyl)piperazine-1-carboxylate]	0.5		7.8
Cc1cccc(C(=O)NCC2CC3(C2)CC(NC(=O)NCc2ccc(Cl)cc2)C3)n1 (stereo not drawn) [Compound 245, N-((6-(3-(4-chlorobenzyl)ureido)spiro[3.3]heptan-2-yl)methyl)-6-methylpicolinamide]	3.1		4.9
